Patent publication US8217029B2, “Oxazolidinone antibiotics” (Actelion Pharmaceuticals Ltd, priority 2007, dated 2012)
Values after ≈ are worked out from the molar mass of the structure shown.

Test system: S aureus A798
Assay: Minimal inhibitory concentration (MIC), microdilution method in cation-adjusted Mueller-Hinton Broth following NCCLS guidelines
Assay type: cell-based
Details: pH of test medium 7.2-7.3
Outline: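 Broth microdilution per NCCLS M7-A4 in cation-adjusted Mueller-Hinton broth at pH 7.2-7.3; MIC reported in mg/l.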

Q: Which MIC does the source give for `COc1ccc2nccc(C3(O)CCN(C[C@@H]4CN(c5ccc6c(c5)NC(=O)CS6)C(=O)O4)CC3)c2c1` [Example 125, 6-{(R)-5-[4-Hydroxy-4-(6-methoxy-quinolin-4-yl)-piperidin-1-ylmethyl]-2-oxo-oxazolidin-3-yl}-4H-benzo[1,4]thiazin-3-one] here?
A: ≤ 0.031 µg/mL

Q: Which MIC does the source give for `COc1ccc2ncc(F)c(C3(O)CCN(C[C@@H]4CN(c5ccc6c(c5)NC(=O)CS6)C(=O)O4)CC3)c2n1` [Example 126, 6-{(R)-5-[4-(3-Fluoro-6-methoxy-[1,5]naphthyridin-4-yl)-4-hydroxy-piperidin-1-ylmethyl]-2-oxo-oxazolidin-3-yl}-4H-benzo[1,4]thiazin-3-one] here?
A: ≤ 0.031 µg/mL

Q: With `COc1ccc2ncc(F)c(N3CC(N(C)C[C@@H]4CN(c5ccc6c(c5)NC(=O)CO6)C(=O)O4)C3)c2n1` [Example 127, 6-[(R)-5-({[1-(3-Fluoro-6-methoxy-[1,5]naphthyridin-4-yl)-azetidin-3-yl]-methyl-amino}-methyl)-2-oxo-oxazolidin-3-yl]-4H-benzo[1,4]oxazin-3-one] as the molecule, how does the MIC read?
A: ≤ 0.031 µg/mL

Q: For `COc1ccc2nccc(N3CC(N(CCO)C[C@@H]4CN(c5ccc6c(c5)NC(=O)CS6)C(=O)O4)C3)c2n1` [Example 128, 6-[(R)-5-({(2-Hydroxy-ethyl)-[1-(6-methoxy-[1,5]naphthyridin-4-yl)-azetidin-3-yl]-amino}-methyl)-2-oxo-oxazolidin-3-yl]-4H-benzo[1,4]thiazin-3-one], which MIC is on record?
A: ≤ 0.031 µg/mL

Q: With `COc1ccc2nccc(N3CC(CNC(=O)[C@@H]4CN(c5ccc(C)c(F)c5)C(=O)O4)C3)c2n1` [Example 130, (S)-3-(3-Fluoro-4-methyl-phenyl)-2-oxo-oxazolidine-5-carboxylic acid [1-(6-methoxy-[1,5]naphthyridin-4-yl)-azetidin-3-ylmethyl]-amide] as the molecule, how does the MIC read?
A: 0.25 µg/mL (≈ 0.537 µM)

Q: How did the MIC turn out when `COc1ccc2nc(C)cc(N3CC(NC[C@@H]4CN(c5ccc6c(c5)NC(=O)CS6)C(=O)O4)C3)c2c1` [Example 131, 6-((R)-5-{[1-(6-Methoxy-2-methyl-quinolin-4-yl)-azetidin-3-ylamino]-methyl}-2-oxo-oxazolidin-3-yl)-4H-benzo[1,4]thiazin-3-one] was run?
A: ≤ 0.031 µg/mL

Q: With `COc1ccc2nccc(C3(O)CCN(C[C@@H]4CN(c5ccc6c(c5)NC(=O)CO6)C(=O)O4)CC3)c2c1` [Example 132, 6-{(R)-5-[4-Hydroxy-4-(6-methoxy-quinolin-4-yl)-piperidin-1-ylmethyl]-2-oxo-oxazolidin-3-yl}-4H-benzo[1,4]oxazin-3-one] as the molecule, how does the MIC read?
A: 0.063 µg/mL (≈ 0.125 µM)

Q: How did the MIC turn out when `COc1ccc2nccc(N3CC(N(C)C[C@@H]4CN(c5ccccc5)C(=O)O4)C3)c2n1` [Example 133, (R)-5-({[1-(6-Methoxy-[1,5]naphthyridin-4-yl)-azetidin-3-yl]-methyl-amino}-methyl)-3-phenyl-oxazolidin-2-one] was run?
A: 2 µg/mL (≈ 4.77 µM)

Q: Which MIC does the source give for `COc1ccc2nccc(N3CC(N(C)C[C@@H]4CN(c5ccc(OC(F)F)cc5)C(=O)O4)C3)c2n1` [Example 134, (R)-3-(4-Difluoromethoxy-phenyl)-5-({[1-(6-methoxy-[1,5]naphthyridin-4-yl)-azetidin-3-yl]-methyl-amino}-methyl)-oxazolidin-2-one] here?
A: ≤ 0.031 µg/mL

Q: Which MIC does the source give for `COc1ccc2nccc(N3CC(N(C)C[C@@H]4CN(c5ccc(C)c(C(F)(F)F)c5)C(=O)O4)C3)c2n1` [Example 135, (R)-5-({[1-(6-Methoxy-[1,5]naphthyridin-4-yl)-azetidin-3-yl]-methyl-amino}-methyl)-3-(4-methyl-3-trifluoromethyl-phenyl)-oxazolidin-2-one] here?
A: ≤ 0.031 µg/mL

Q: How did the MIC turn out when `COc1ccc2nccc(N3CC(N(C)C[C@@H]4CN(c5ccc(F)c(Cl)c5)C(=O)O4)C3)c2n1` [Example 136, (R)-3-(3-Chloro-4-fluoro-phenyl)-5-({[1-(6-methoxy-[1,5]naphthyridin-4-yl)-azetidin-3-yl]-methyl-amino}-methyl)-oxazolidin-2-one] was run?
A: 0.25 µg/mL (≈ 0.53 µM)

Q: `CCc1ccc(N2C[C@@H](CN(C)C3CN(c4ccnc5ccc(OC)nc45)C3)OC2=O)cc1` [Example 137, (R)-3-(4-Ethyl-phenyl)-5-({[1-(6-methoxy-[1,5]naphthyridin-4-yl)-azetidin-3-yl]-methyl-amino}-methyl)-oxazolidin-2-one] was tested. Which MIC did it give?
A: ≤ 0.031 µg/mL

Q: With `COc1ccc2nccc(N3CC(N(C)C[C@@H]4CN(c5ccc(C)c(C)c5)C(=O)O4)C3)c2n1` [Example 138, (R)-3-(3,4-Dimethyl-phenyl)-5-({[1-(6-methoxy-[1,5]naphthyridin-4-yl)-azetidin-3-yl]-methyl-amino}-methyl)-oxazolidin-2-one] as the molecule, how does the MIC read?
A: ≤ 0.031 µg/mL

Q: With `CCCc1ccc(N2C[C@@H](CN(C)C3CN(c4ccnc5ccc(OC)nc45)C3)OC2=O)cc1` [Example 139, (R)-5-({[1-(6-Methoxy-[1,5]naphthyridin-4-yl)-azetidin-3-yl]-methyl-amino}-methyl)-3-(4-propyl-phenyl)-oxazolidin-2-one] as the molecule, how does the MIC read?
A: ≤ 0.031 µg/mL

Q: `COc1ccc2nccc(N3CC(N(C)C[C@@H]4CN(c5cccc(N(C)C)c5)C(=O)O4)C3)c2n1` [Example 140, (R)-3-(3-Dimethylamino-phenyl)-5-({[1-(6-methoxy-[1,5]naphthyridin-4-yl)-azetidin-3-yl]-methyl-amino}-methyl)-oxazolidin-2-one] was tested. Which MIC did it give?
A: 0.25 µg/mL (≈ 0.54 µM)

Q: For `COc1ccc2nccc(N3CC(N(C)C[C@@H]4CN(c5ccc(Br)c(F)c5)C(=O)O4)C3)c2n1` [Example 141, (R)-3-(4-Bromo-3-fluoro-phenyl)-5-({[1-(6-methoxy-[1,5]naphthyridin-4-yl)-azetidin-3-yl]-methyl-amino}-methyl)-oxazolidin-2-one], which MIC is on record?
A: ≤ 0.031 µg/mL

Q: `COc1ccc2nccc(N3CC(N(C)C[C@@H]4CN(c5ccc(C)c(Br)c5)C(=O)O4)C3)c2n1` [Example 142, (R)-3-(3-Bromo-4-methyl-phenyl)-5-({[1-(6-methoxy-[1,5]naphthyridin-4-yl)-azetidin-3-yl]-methyl-amino}-methyl)-oxazolidin-2-one] was tested. Which MIC did it give?
A: ≤ 0.031 µg/mL

Q: `COc1ccc2nccc(N3CC(N(C)C[C@@H]4CN(c5ccc(Br)c(C)c5)C(=O)O4)C3)c2n1` [Example 143, (R)-3-(4-Bromo-3-methyl-phenyl)-5-({[1-(6-methoxy-[1,5]naphthyridin-4-yl)-azetidin-3-yl]-methyl-amino}-methyl)-oxazolidin-2-one] was tested. Which MIC did it give?
A: ≤ 0.031 µg/mL

Q: `COc1ccc2nccc(N3CC(N(C)C[C@@H]4CN(c5ccc6ncsc6c5)C(=O)O4)C3)c2n1` [Example 144, (R)-3-Benzothiazol-6-yl-5-({[1-(6-methoxy-[1,5]naphthyridin-4-yl)-azetidin-3-yl]-methyl-amino}-methyl)-oxazolidin-2-one] was tested. Which MIC did it give?
A: 0.063 µg/mL (≈ 0.132 µM)

Q: `COc1ccc2nccc(N3CC(N(C)C[C@@H]4CN(c5ccc6c(c5)OCO6)C(=O)O4)C3)c2n1` [Example 145, (R)-3-Benzo[1,3]dioxol-5-yl-5-({[1-(6-methoxy-[1,5]naphthyridin-4-yl)-azetidin-3-yl]-methyl-amino}-methyl)-oxazolidin-2-one] was tested. Which MIC did it give?
A: 0.125 µg/mL (≈ 0.27 µM)

Q: With `COc1ccc2nccc(N3CC(N(C)C[C@@H]4CN(c5ccc6scnc6c5)C(=O)O4)C3)c2n1` [Example 146, (R)-3-Benzothiazol-5-yl-5-({[1-(6-methoxy-[1,5]naphthyridin-4-yl)-azetidin-3-yl]-methyl-amino}-methyl)-oxazolidin-2-one] as the molecule, how does the MIC read?
A: 0.063 µg/mL (≈ 0.132 µM)

Q: Which MIC does the source give for `COc1ccc2nccc(N3CC(N(C)C[C@@H]4CN(c5cccc(F)c5)C(=O)O4)C3)c2n1` [Example 147, (R)-3-(3-Fluoro-phenyl)-5-({[1-(6-methoxy-[1,5]naphthyridin-4-yl)-azetidin-3-yl]-methyl-amino}-methyl)-oxazolidin-2-one] here?
A: 0.25 µg/mL (≈ 0.571 µM)

Q: Which MIC does the source give for `COc1ccc2nccc(N3CC(C(=O)NC[C@@H]4CN(c5ccc(C)c(F)c5)C(=O)O4)C3)c2n1` [Example 148, 1-(6-Methoxy-[1,5]naphthyridin-4-yl)-azetidine-3-carboxylic acid [(R)-3-(3-fluoro-4-methyl-phenyl)-2-oxo-oxazolidin-5-ylmethyl]-amide] here?
A: 0.5 µg/mL (≈ 1.07 µM)

Q: For `COc1ccc2nccc(N3CC(N(C)C[C@@H]4CN(c5ccc6c(n5)NC(=O)CO6)C(=O)O4)C3)c2n1` [Example 150, 6-[(R)-5-({[1-(6-Methoxy-[1,5]naphthyridin-4-yl)-azetidin-3-yl]-methyl-amino}-methyl)-2-oxo-oxazolidin-3-yl]-4H-pyrido[3,2-b][1,4]oxazin-3-one], which MIC is on record?
A: ≤ 0.031 µg/mL

Q: How did the MIC turn out when `COc1ccc2nccc(N3C[C@@H]4C[C@H]3CN4C[C@@H]3CN(c4ccc5c(c4)NC(=O)CO5)C(=O)O3)c2n1` [Example 151, 6-{(R)-5-[(1S,4S)-5-(6-Methoxy-[1,5]naphthyridin-4-yl)-2,5-diaza-bicyclo[2.2.1]hept-2-ylmethyl]-2-oxo-oxazolidin-3-yl}-4H-benzo[1,4]oxazin-3-one] was run?
A: 0.063 µg/mL (≈ 0.125 µM)

Q: With `COc1ccc2nccc(N3C[C@@H]4C[C@H]3CN4C[C@@H]3CN(c4ccc5c(c4)NC(=O)CS5)C(=O)O3)c2n1` [Example 152, 6-{(R)-5-[(1S,4S)-5-(6-Methoxy-[1,5]naphthyridin-4-yl)-2,5-diaza-bicyclo[2.2.1]hept-2-ylmethyl]-2-oxo-oxazolidin-3-yl}-4H-benzo[1,4]thiazin-3-one] as the molecule, how does the MIC read?
A: 0.063 µg/mL (≈ 0.121 µM)

Q: Which MIC does the source give for `COc1ccc2nccc(N3CC(N(C)C[C@@H]4CN(c5cc6c(nn5)OCCO6)C(=O)O4)C3)c2n1` [Example 153, (R)-3-(6,7-Dihydro-[1,4]dioxino[2,3-c]pyridazin-3-yl)-5-({[1-(6-methoxy-[1,5]naphthyridin-4-yl)-azetidin-3-yl]-methyl-amino}-methyl)-oxazolidin-2-one] here?
A: 4 µg/mL (≈ 8.34 µM)

Q: Which MIC does the source give for `COc1ccc2nccc(N3CC(CNC[C@@H]4CN(c5ccc(C)c(F)c5)C(=O)O4)C3)c2n1` [Example 154, (R)-3-(3-Fluoro-4-methyl-phenyl)-5-({[1-(6-methoxy-[1,5]naphthyridin-4-yl)-azetidin-3-ylmethyl]-amino}-methyl)-oxazolidin-2-one] here?
A: 0.063 µg/mL (≈ 0.14 µM)

Q: `COc1ccc2ncc(F)c(N3CC(NC[C@@H]4CN(c5cc6c(cc5F)SCC(=O)N6)C(=O)O4)C3)c2n1` [Example 155, 7-Fluoro-6-((R)-5-{[1-(3-fluoro-6-methoxy-[1,5]naphthyridin-4-yl)-azetidin-3-ylamino]-methyl}-2-oxo-oxazolidin-3-yl)-4H-benzo[1,4]thiazin-3-one] was tested. Which MIC did it give?
A: ≤ 0.031 µg/mL
